In patent US20160186066A1, “METHODS AND SYSTEMS FOR PROCESSING CELLULOSIC BIOMASS” (priority 2014, published 2016):
Where two headings read alike, the source gives them in different places.

Tests used:
[1] = MIBC re-extraction (step #2) of layer from initial MIBC extraction (Example 4); format: physicochemical
Protocol: One part of the upper organic-rich upper layer from Example 3 was removed prior to distillation, extracted with one part by weight of MIBC solvent, by shaking for 3 minutes in a vial via mechanical shaker, followed by allowing to phase separate overnight at 25° C.
Extraction efficiency as measured by the partition coefficient K increased with increasing carbon number for the light alcohol. Glycols EG and PG were not extracted.

[2] = 3 min
Protocol: (§1) The reaction product mixture was extracted with one part of by weight solvent, with mixing for a minimum of three minutes, followed by phase separation overnight at 25° C.

[3] = Comparison of extraction solvents on simulated aqueous reaction product mixture (Examples 5A-5D)
Protocol: as §1

[4] = Solubility of MPP in deionized water (turbidity); format: physicochemical; conditions: 1 wt % solution, room temperature
[5] = Extraction of phenols from 1% aqueous solution with toluene or heptane (Examples 5E-5H); conditions: for amount remaining in / lost to the aqueous phase: Ex 5F, 1% MPP in water extracted with heptane; for amount left in / lost to the aqueous layer: Ex 5G, 1% m-cresol solution extracted with toluene

Question: For `OCCO` [EG, ethylene glycol], which “Extr #2 % extract” value [1] is on record?
Answer: The value was “not extracted”.

Question: Which “oil/water partition coefficient of extraction solvent components” value [2] does the source give for `CC(C)CC(C)O` (stereo not drawn) [MIBC, methylisobutylcarbinol] here?
Answer: The value was 48.

Question: For `CCCc1ccc(O)c(OC)c1` [MPP, 2-methoxy-4-propylphenol], which “partition coefficient for distribution of extraction solvent between organic and aqueous layers” value ([3]; Ex 5B, MPP as extraction solvent) is on record?
Answer: Its value is 612.

Question: And the “oil/water partition coefficient of extraction solvent components” value ([3]; Ex 5C, MPP/MIBC mixture as extraction solvent)?
Answer: Its value is 462.

Question: What about the “solubility in deionized water (turbidity)” value [4] of the same compound?
Answer: The value was “only partial solubility”.

Question: What about the “partition coefficient, weight percent in organic layer extract vs. lower layer aqueous fraction” value ([5]; Ex 5E, 1 wt % MPP in water extracted with one part toluene) of the same compound?
Answer: Its value is 161.7.

Question: What about the “amount remaining in / lost to the aqueous phase” value [5] of the same compound?
Answer: Its value is 0.08 wt %.

Question: For `CC(O)CO` (stereo not drawn) [PG, 1,2-propylene glycol], which “Extr #2 % extract” value [1] is on record?
Answer: The value was “not extracted”.

Question: For `Cc1cccc(O)c1` [cresol, meta-cresol], which “amount left in / lost to the aqueous layer” value [5] is on record?
Answer: Its value is 0.05 wt %.

Question: What does the source list for `CCCCCCC` [heptane]?
Answer: amount remaining in / lost to the aqueous phase [5]: 0.07 wt %; lost to the aqueous layer ([5]; Ex 5H, 1% m-cresol solution extracted with heptane): 0.015%

Question: With `Cc1ccccc1` [toluene] as the compound, how does the “amount left in / lost to the aqueous layer” value [5] read?
Answer: The value was 0.04 wt %.
